Data taken from patent publication US8178547B2, “Heterocyclic antiviral compounds” (Roche Palo Alto LLC, priority 2008, dated 2012).

Legend:
[1] = molecular target: T1, HCV polymerase (NS5B570n-Con1) (Hepatitis C virus genotype 1b, UniProt Q9WMX2); assay: HCV NS5B RNA polymerase activity; assay type: biochemical, HCV Con1 strain
T1 construct: a 21 amino acid C-terminal deletion of full-length HCV polymerase; made in house; host or cells: E. coli BL21(DE3) pLysS, plasmid pET17b
Experimental: The enzymatic activity of HCV polymerase (NS5B570n-Con1) was measured as the incorporation of radiolabeled nucleotide monophosphates into acid insoluble RNA products. Unincorporated radiolabeled substrate was removed by filtration and scintillant was added to the washed and dried filter plate containing radiolabeled RNA product. The amount of RNA product generated by NS5B570n-Con1 at the end of the reaction was directly proportional to the amount of light emitted by the scintillant.
The HCV polymerase used in the enzymatic activity assay is a 21 amino acid C-terminal deletion of full-length HCV polymerase derived from HCV Con1 strain, genotype 1b (GenBank accession number AJ242654) (NS5B570n-Con1). The NS5B570n-Con1 was sub-cloned downstream to the T7 promoter of the plasmid expression construct pET17b and transformed into E. coli strain BL21(DE3) pLysS for protein expression. A single colony was used to start an innoculum for a 10 L culture in LB media supplemented with 100 μg/mL ampicillin at 37° C. Protein expression was induced by the addition of 0.25 mM isopropyl-β-D-thiogalactopyranoside (IPTG) when the optical density of the culture at […] was 0.8. Induction of protein expression was carried out at 30° C. for 16 h after which the cells were harvested by centrifugation. NS5B570n-Con1 was purified to homogeneity using a three-column purification protocol including subsequent column chromatography on Ni-NTA, SP-Sepharose HP and Superdex 75 resins.
[…] TRK-412; specific activity: 30 to 60 Ci/mmol;), 1 μM each ATP, CTP, and GTP, 40 mM Tris-HCl pH 8.0, 40 mM NaCl, 4 mM DTT (dithiothreitol), 4 mM MgCl2, 5 μl of compound serial diluted in DMSO, and nuclease-free water to a final reaction volume of 50 μl. Enzymatic reactions in the presence of poly A RNA template (see section 0004) contained 20 nM Poly A:oligo(rU)16 premixed (see section 0004), 20 nM NS5B570n-Con1 enzyme, 1 μCi of tritiated UTP (Perkin Elmer catalog no. TRK-412; specific activity: 30 to 60 Ci/mmol), 40 mM Tris-HCl pH 8.0, 40 mM NaCl, 4 mM DTT (dithiothreitol), 4 mM MgCl2, 5 μl of compound serial diluted in DMSO, and nuclease-free water to a final reaction volume of 50 μl. Reaction mixtures were assembled in 96-well filter plates (cat #MADVN0B, Millipore Co.) and incubated for 2 h at 30° C. Reactions were stopped by addition of 10% final (v/v) trichloroacetic acid and incubated for 40 min at 4° C. Reactions were filtered, washed with 8 reaction volumes of 10% (v/v) trichloroacetic acetic acid, 4 reaction volumes of 70% (v/v) ethanol, air dried, and 25 μl of scintillant (Microscint 20, Perkin-Elmer) was added to each reaction well.
Two RNA templates were used to assay compounds described herein. The cIRES RNA template was 377 nucleotide long and consisted of a partial complementary sequence (36 nucleotides) of the core protein, followed by 341 nucleotide of the complementary sequence of the internal ribosome entry site. The poly A RNA template (GE Amersham catalog number 27-4110) was a homopolymeric RNA pre-annealed to a oligo(rU)16 primer at a molar ratio of 3-to-1 (primer-template).
The amount of light emitted from the scintillant was converted to counts per minute (CPM) on a Topcount® plate reader (Perkin-Elmer, Energy Range: Low, Efficiency Mode: Normal, Count Time: 1 min, Background Subtract: none, Cross talk reduction: Off).
Data was analyzed in Excel® (Microsoft) and ActivityBase® (Idbs®). The reaction in the absence of enzyme was used to determine the background signal, which was subtracted from the enzymatic reactions. […] All data was expressed as a percentage of the positive control. The compound concentration at which the enzyme-catalyzed rate of RNA synthesis was reduced by 50%

in vitro = conditions: human
[2] = tested on: HCV replicon cells (2209-23), genotype 1b replicon; assay: HCV replicon assay (Renilla luciferase reporter); assay type: cell-based, HCV genotype 1b; conditions: Hepatitis C virus, 72 h; 2209-23 cells, three days incubation
HCV = conditions: cited from earlier work
[3] = NS5B pol inhibition IC50, as in Example 32 (20 nM RNA template)
[4] = NS5B pol inhibition IC50, cell values marked ^2, as in Example 32 except RNA template concentration 3 nM (footnote 3)

| Compound | IC50 [1, 3] [nM] | melting point [°C] | IC50 [2] [nM] | also measured |
| --- | --- | --- | --- | --- |
| COc1c(CCc2ccc(NS(C)(=O)=O)cc2)cc(-c2ncc[nH]c2=O)cc1C(C)(C)C [Compound I-1, N-(4-{2-[3-tert-Butyl-2-methoxy-5-(3-oxo-3,4-dihydro-pyrazin-2-yl)-phenyl]-ethyl}-phenyl)-methanesulfonamide] | 15 | 238 to 240 | 112 | CC50 (in vitro): 24200 nM |
| COc1c(/C=C/c2ccc(NS(C)(=O)=O)cc2)cc(-c2cnc[nH]c2=O)cc1C(C)(C)C [Compound I-22, N-(4-{(E)-2-[3-tert-Butyl-2-methoxy-5-(6-oxo-1,6-dihydro-pyrimidin-5-yl)-phenyl]-vinyl}-phenyl)-methanesulfonamide] |  |  |  | IC50 [1, 4]: 2 nM; CC50 (in vitro): 23200 nM |
| CC1(C)COc2c(-c3ccn[nH]c3=O)cc(/C=C/c3ccc(NS(C)(=O)=O)cc3)cc21 [Compound I-21, N-(4-{(E)-2-[3,3-Dimethyl-7-(3-oxo-2,3-dihydro-pyridazin-4-yl)-2,3-dihydro-benzofuran-5-yl]-vinyl}-phenyl)-methanesulfonamide] |  | 255 to 257 | 113 | IC50 [1, 4]: 2 nM |
| COc1c(NC(=O)c2ccc(NCC(F)(F)F)cc2)cc(-c2ccn[nH]c2=O)cc1C(C)(C)C [Compound I-20, N-[3-tert-Butyl-2-methoxy-5-(3-oxo-2,3-dihydro-pyridazin-4-yl)-phenyl]-4-(2,2,2-trifluoro-ethylamino)-benzamide] | 5 | 250 to 252 |  | IC50 [1, 4]: 3 nM |
| COC(=O)c1cc(NS(C)(=O)=O)ccc1/C=C/c1cc(-c2cnc(OCc3ccccc3)[nH]c2=O)cc(C(C)(C)C)c1OC [Compound I-24] |  |  | 40 | IC50 [1, 4]: 11 nM; CC50 (in vitro): 4700 nM |
| COc1c(/C=C/c2ccc(NS(C)(=O)=O)cc2)cc(-c2c[nH]c(=O)[nH]c2=O)cc1OC(F)(F)F [Compound I-42, N-(4-{(E)-2-[5-(2,4-Dioxo-1,2,3,4-tetrahydro-pyrimidin-5-yl)-2-methoxy-3-trifluoromethoxy-phenyl]-vinyl}-phenyl)-methanesulfonamide] | 6.7 | 202 to 205 |  |  |
| COc1c(/C=C/c2ccc(NS(C)(=O)=O)cc2)cc(-c2c[nH]c(=O)[nH]c2=O)cc1C(F)(F)F [Compound I-35, N-(4-{(E)-2-[5-(2,4-Dioxo-1,2,3,4-tetrahydro-pyrimidin-5-yl)-2-methoxy-3-trifluoromethyl-phenyl]-vinyl}-phenyl)-methanesulfonamide] | 0.5 | 255 to 258 |  |  |
| COc1c(/C=C/c2ccc(NS(C)(=O)=O)cc2)cc(-c2cnc(N(C)C)[nH]c2=O)cc1C(C)(C)C [Compound I-33, N-(4-{(E)-2-[3-tert-Butyl-5-(2-dimethylamino-6-oxo-1,6-dihydro-pyrimidin-5-yl)-2-methoxy-phenyl]-vinyl}-phenyl)-methanesulfonamide] | 2.6 | > 300 |  |  |
| COc1ncc(-c2cc(/C=C/c3ccc(NS(C)(=O)=O)cc3)c(OC)c(C(C)(C)C)c2)c(=O)[nH]1 [Compound I-34, N-(4-{(E)-2-[3-tert-Butyl-2-methoxy-5-(2-methoxy-6-oxo-1,6-dihydro-pyrimidin-5-yl)-phenyl]-vinyl}-phenyl) methanesulfonamide] | 0.6 | 296 to 299 |  |  |
| COc1c(NC(=O)c2ccc(NS(C)(=O)=O)cc2)cc(-c2ncc[nH]c2=O)cc1C(C)(C)C [Compound I-4, N-[3-tert-Butyl-2-methoxy-5-(3-oxo-3,4-dihydro-pyrazin-2-yl)-phenyl]-4-methanesulfonylamino-benzamide] | 6 |  | 347 |  |
| COc1c(CCc2ccc(NS(C)(=O)=O)cc2)cc(-c2ncc[nH]c2=O)c(F)c1C(C)(C)C [Compound I-3, N-(4-{2-[3-tert-Butyl-4-fluoro-2-methoxy-5-(3-oxo-3,4-dihydro-pyrazin-2-yl)-phenyl]-ethyl}-phenyl)-methanesulfonamide] | 41 | 130 to 132 |  |  |
| COc1c(/C=C/c2ccc(NS(C)(=O)=O)cc2)cc(-c2ccn[nH]c2=O)cc1C1CC1 [Compound I-26, N-(4-{(E)-2-[3-Cyclopropyl-2-methoxy-5-(3-oxo-2,3-dihydro-pyridazin-4-yl)-phenyl]-vinyl}-phenyl)-methanesulfonamide] | 2.1 | 269 to 271 |  |  |
| COc1c(/C=C/c2ccc(NS(C)(=O)=O)cc2)cc(-c2cc(C)n[nH]c2=O)cc1C(C)(C)C [Compound I-17] | 10 | 292 to 294 |  |  |
| COc1c(/C=C/c2ccc(NS(C)(=O)=O)cc2C(=O)O)cc(-c2ccn[nH]c2=O)cc1C(C)(C)C [Compound I-9, 2-{(E)-2-[3-tert-Butyl-2-methoxy-5-(3-oxo-2,3-dihydro-pyridazin-4-yl)-phenyl]-vinyl}-5-methanesulfonylamino-benzoic acid] | 0.2 |  | 71 |  |
| NC(=O)c1ncn([C@@H]2O[C@H](CO)[C@@H](O)[C@H]2O)n1 [ribavirin, 1-((2R,3R,4S,5R)-3,4-Dihydroxy-5-hydroxymethyl-tetrahydro-furan-2-yl)-1H[1,2,4]triazole-3-carboxylic acid amide] |  |  |  | serum levels of HCV-RNA (HCV; monotherapy / sole treatment): does not lower serum levels of HCV-RNA; patients with serum amino transferase levels reduced to normal (HCV; monotherapy): 40% |
| CC1(C)COc2c(-c3ncc[nH]c3=O)cc(/C=C/c3ccc(NS(C)(=O)=O)cc3)cc21 [Compound I-23, N-(4-{(E)-2-[3,3-Dimethyl-7-(3-oxo-3,4-dihydro-pyrazin-2-yl)-2,3-dihydro-benzofuran-5-yl]-vinyl}-phenyl)-methanesulfonamide] |  | 302 to 304 |  | IC50 [1, 4]: 19 nM |
| COc1c(/C=C/c2ccc(NS(C)(=O)=O)cc2)cc(-c2ncc[nH]c2=O)cc1C1(C(F)F)CC1 [Compound I-31, N-(4-{(E)-2-[3-(1-Difluoromethyl-cyclopropyl)-2-methoxy-5-(3-oxo-3,4-dihydro-pyrazin-2-yl)-phenyl]-vinyl}-phenyl)-methanesulfonamide] | 0.3 | 241 to 243 |  |  |
| COc1c(/C=C/c2ccc(NS(C)(=O)=O)cc2)cc(-c2ccn[nH]c2=O)cc1C(C)(C)C [Compound I-13, N-(4-{(E)-2-[3-tert-Butyl-2-methoxy-5-(3-oxo-2,3-dihydro-pyridazin-4-yl)-phenyl]-vinyl}-phenyl)-methanesulfonamide] | 4 |  | 1 |  |
| Cc1cc(-c2ccn[nH]c2=O)cc(C(C)(C)C)c1 [Compound I-12] | 390 | 175 to 176 |  |  |
